In publication PMC7571145, “Multistep Synthesis and In Vitro Anticancer Evaluation of 2-Pyrazolyl-Estradiol Derivatives, Pyrazolocoumarin-Estradiol Hybrids and Analogous Compounds” (Molecules, 2020):

How the values were obtained:
HeLa cells = assay: MTT cytotoxicity assay on HeLa cells; assay type: cell-based; settings: 72 h; for primary growth inhibitory screen, cell viability, HeLa: 2.5 µM, mean±SD, untreated control about 100
Protocol: (§1) Cytotoxicity screens were performed to assess the in vitro anticancer activity of the synthesized A-ring-linked 2-pyrazoles of estradiol, the pyrazolocoumarin-estradiol hybrids, and their structurally simplified non-steroidal analogs on various cancerous cell lines such as MCF-7, PC-3, DU145, and HeLa and on non-cancerous MRC-5 fibroblasts. The 2-acetyl-phenol starting materials (4, 5, and 15) were also included for comparison. All compounds were applied in 2.5 µM concentration for 72 h. The obtained cell viability data were used to construct a heat map (Figure 2) in order to select compounds that exert cancer cell line-specific cytotoxicity. […] Furthermore, some compounds discriminated only DU145 cells and could eliminate these type of prostate cancer cells.
(§2) To understand structure-function relationships, we also included the structural analogs of the selected compounds, namely 7a (C-17 acetate of 8a), 8c (C-17 OH counterpart of 7c), and 9a (steroidal pair of 19a) into subsequent analyses. […] For this, compounds were applied on MCF-7, PC-3, DU145, and HeLa and on non-cancerous MRC-5 fibroblasts in various concentrations for 72 h or were treated with cisplatin at different concentrations. On the viability data, dose–response curves were fitted (Figure S1) and IC50 values were calculated accordingly (Table 3). In agreement with the primary cytotoxicity screen (Table S1), the obtained IC50 concentrations clearly indicated which compound was selectively effective on one or more cancer cell lines. […] Typically, acetylated steroidal pyrazoles were less favorable than deacetylated counterparts due to reduced cancer cell selectivity (7c, 10a).
(§3) To evaluate the in vitro pharmacological effects of the synthesized molecules, each compound was first dissolved in cell culture grade DMSO (Sigma) to a final concentration of 10 mM. Using MTT colorimetric assay, the cytotoxicity of these compounds was evaluated on cancerous (MCF-7, HeLa, DU145, PC-3) and non-cancerous (MRC-5) cell lines. Briefly, 5000 cells/well of each cell line were seeded in 96-well plates and were left to grow overnight in a 5% CO2 atmosphere at 37 °C. On the next day, cells were treated with each derivative separately, in case of the primary screen, or only with the selected compounds upon IC50 determination. Cells were incubated with the test compounds for 72 h in a 5% CO2 atmosphere at 37 °C. End point was measured by incubating cells for 1 h with 0.5 mg/mL of MTT reagent (Serva) dissolved in serum free culture medium. The formazan crystals formed by metabolically active cells were later dissolved in DMSO. Optical density of the obtained solutions was measured at 570 nm using a Synergy HTX plate reader. […] The analysis and conclusions were made based on three independent experiments. Normalized data were analyzed and the heat map was constructed using GraphPad Prism 7 software.

MCF-7 cells = assay: MTT cytotoxicity assay on MCF-7 cells; assay type: cell-based; settings: for primary growth inhibitory screen, cell viability, MCF-7: 2.5 µM, 72 h, mean±SD, untreated control about 100
Protocol: as §1, §2, §3

MRC-5 fibroblasts = assay: MTT cytotoxicity assay on non-cancerous MRC-5 fibroblasts; assay type: cell-based; settings: 72 h, MTT; for primary growth inhibitory screen, cell viability, MRC-5: 2.5 µM, mean±SD, untreated control about 100
Protocol: as §1, §2, §3

DU145 cells = assay: MTT cytotoxicity assay on DU145 prostate cancer cells; assay type: cell-based; settings: for primary growth inhibitory screen, cell viability, DU145: 2.5 µM, 72 h, mean±SD, untreated control about 100
Protocol: as §1, §2, §3

PC-3 cells = assay: MTT cytotoxicity assay on PC-3 prostate cancer cells; assay type: cell-based; settings: for primary growth inhibitory screen, cell viability, PC-3: 2.5 µM, 72 h, mean±SD, untreated control about 100
Protocol: as §1, §2, §3

SMILES	primary growth inhibitory screen, cell viability, HeLa (HeLa cells)	melting point	primary growth inhibitory screen, cell viability, MCF-7 (MCF-7 cells)	primary growth inhibitory screen, cell viability, MRC-5 (MRC-5 fibroblasts)	primary growth inhibitory screen, cell viability, DU145 (DU145 cells)	primary growth inhibitory screen, cell viability, PC-3 (PC-3 cells)	IC50 (HeLa cells; Homo sapiens, HeLa, compounds 1-7 µM, mean ± SD, read-out: IC50 on HeLa) [µM]	IC50 (MCF-7 cells; Homo sapiens, MCF7, 72 h, compounds 1-7 µM, mean ± SD, read-out: IC50 on MCF-7) [µM]	IC50 (MRC-5 fibroblasts; Homo sapiens, MRC5, compounds 1-7 µM, mean ± SD, read-out: IC50 on MRC-5) [µM]	IC50 (DU145 cells; Homo sapiens, DU-145, 72 h, compounds 1-7 µM, mean ± SD, read-out: IC50 on DU145) [µM]	IC50 (PC-3 cells; Homo sapiens, PC-3, 72 h, compounds 1-7 µM, mean ± SD, read-out: IC50 on PC-3) [µM]
CC(=O)O[C@H]1CC[C@H]2[C@@H]3CCc4cc(O)c(C(C)=O)cc4[C@H]3CC[C@]12C [Compound 4, 2-Acetyl-estra-1,3,5(10)-triene-3,17β-diol-17-acetate]	90.0±4.3	200 to 202 °C	92.7±2.2	≥ 100±6.6	94.2±8.6	88.5±6.5	–	–	–	–	–
O=c1oc2cc3c(cc2c2nn(-c4ccc(Cl)cc4)cc12)CCCC3 [Compound 19c, 2-(4′-Chlorophenyl)-7,8,9,10-tetrahydrobenzo[6,7]chromeno[4,3-c]pyrazol-4(2H)-one]	≥ 100±8.3	291 to 293 °C	≥ 100±3.8	≥ 100±2.5	≥ 100.6±10.8	79.1±7.8	–	–	–	–	–
C[C@]12CC[C@@H]3c4cc(-c5nn(-c6ccc(Cl)cc6)cc5C=O)c(O)cc4CC[C@H]3[C@@H]1CC[C@@H]2O [Compound 8c]	83.1±6.2	> 190 °C (dec.)	≥ 100±5.3	≥ 100±3.3	≥ 100±5.0	94.8±4.0	3.39 ± 1	5.34 ± 1	5.53 ± 1	4.82 ± 1	5.08 ± 1
OCc1cn(-c2ccc(Cl)cc2)nc1-c1cc2c(cc1O)CCCC2 [Compound 18c, 3-(1′-(4″-Chlorophenyl)-4′-(hydroxymethyl)-1′H-pyrazol-3′-yl)-5,6,7,8-tetrahydro-2-naphthol]	≥ 100±6.6	154 to 156 °C	≥ 100±4.7	≥ 100±2.3	≥ 100±4.3	90.9±3.0	–	–	–	–	–
Cc1ccc(-n2cc(C=O)c(-c3cc4c(cc3O)CC[C@@H]3[C@@H]4CC[C@]4(C)[C@@H](O)CC[C@@H]34)n2)cc1 [Compound 8b, 2-(4′-Formyl-1′-(4″-tolyl)-1′H-pyrazol-3′-yl)-estra-1,3,5(10)-trien-3,17β-diol]	92.2±8.5	> 190 °C (dec.)	≥ 100±8.2	≥ 100±2.4	≥ 100±10.2	67.8±3.8	–	–	–	–	–
Cc1ccc(-n2cc3c(=O)oc4cc5c(cc4c3n2)CCCC5)cc1 [Compound 19b, 2-(4′-Tolyl)-7,8,9,10-tetrahydrobenzo[6,7]chromeno[4,3-c]pyrazol-4(2H)-one]	≥ 100±2.4	224 to 226 °C	≥ 100±4.8	≥ 100±0	100.6±6.3	84.1±5.2	–	–	–	–	–
CC(=O)c1cc2c(cc1O)CC[C@@H]1[C@@H]2CC[C@]2(C)[C@@H](O)CC[C@@H]12 [Compound 5, 2-Acetyl-estra-1,3,5(10)-triene-3,17β-diol]	99.6±3.5	189 to 191 °C	87.5	≥ 100±7	100.6±6.5	79.0±3.8	–	–	–	–	–
